Patent US11185539B2 (priority 2017, dated 2021)

Legend:
[1] = Myocardial and plasma concentrations, LC and QTOF-MS; type: in vivo, mice; conditions: 9 minutes after injection; Bufalin 0.5, Lycorine 4.5 mg/kg
Description: Plasma and hearts of C57BL/6N mice were harvested 9 minutes after injection with natural substances Bufalin (0.5 mg/kg) or Lycorine (4.5 mg/kg) (dissolved in DMSO). After extraction of the substances, Bufalin and Lycorine were quantified by liquid chromatography (LC) and quadrupole time-of-flight mass spectrometry (QTOF-MS) (see FIG. 30).

[2] = system: rat renal fibroblast cell line NRK49F; experiment: Proliferation of rat renal fibroblast cell line NRK49F, BrdU-ELISA; type: cell-based; conditions: 24 h; for proliferation of renal fibroblasts (NRK49F): Lycorine 1, 5, 10 μM, Bufalin 0.1, 1, 10 μM
Description: Cells of the rat renal fibroblast cell line NRK49F and primary human pulmonary fibroblasts (HPFs) were treated with Lycorine (1 μM, 5 μM and 10 μM) or Bufalin (0.1 μM, 1 μM, 10 μM) for 24 h and proliferation of respective fibroblasts was measured by BrdU-ELISA (see FIG. 39).

[3] = system: C57BL/6N mice with angiotensin II-induced diastolic heart failure; experiment: Picrosirius-red collagen staining of heart sections, therapeutic model (eight weeks); type: in vivo; conditions: therapeutic: i.p. every other day from week 2 of angiotensin II; week 8
Description: (§1) Diastolic heart failure (HF) was induced in C57BL/6N mice via implantation of angiotensin II filled minipumps (see Example 3). In difference to Example 3, C57BL/6N mice were infused with 3 mg/kg/day angiotensin II by subcutaneously implanted minipumps for eight weeks.
(§2) Next, Bufalin or Lycorine (dissolved in DMSO) or the solvent DMSO alone (as control) were injected intraperitoneally (i.p) every other day until the endpoint, starting two weeks after start of angiotensin II-infusion (see FIG. 11).
Additionally, eight weeks after the operation, histological sections of the hearts were stained for collagen using picrosirius-red (n=7-12 per group) after treatment with Bufalin or Lycorine.

[4] = system: C57BL/6N mice with angiotensin II-induced diastolic heart failure; experiment: Tissue Doppler Imaging, therapeutic model; type: in vivo; conditions: therapeutic: Bufalin 0.5 mg/kg; week 8; vs AngII solvent control
Description: as §1, §2
(§3) Diastolic HF was induced in C57BL/6 mice and Bufalin were injected as indicated in Example 5. Eight weeks after the operation, cardiac function of the mice was assessed echocardiographically (n=3-6 per group) by treating the mice with said compounds (Bufalin: 0.5 mg/kg)
Echocardiographic measurements were performed using Tissue Doppler Imaging (TDI), which refers to a medical ultrasound technology mainly used in Echocardiography that measures the velocity of the heart muscle or myocardium through the phases of one or more heartbeats by the Doppler effect (frequency shift) of the reflected ultrasound (see FIG. 14).

miRNA expression of HCFs = experiment: High-throughput miRNA sequencing in HCFs; type: cell-based, human; conditions: 1 μM, 24 h, vs DMSO
Description: HCFs were treated with 1 μM Bufalin for 24 h as indicated, total RNA was isolated and subjected to high-throughput miRNA sequencing profiling via deep sequencing, DMSO refers as a control. To perform a high-throughput miRNA sequencing the Illumine® TruSeq® Small RNA technology is used to prepare various RNA species which is known to the person skilled in the art. In view of said technology, advantages of the natural structure common to most known microRNA molecules are taken. Most mature miRNAs have a 5′-phosphate and a 3′-hydroxyl group as a result of the cellular pathway used to create them. Because of this, the Illumina adapters which are used are directly and specifically ligated to miRNAs. Thus, libraries for subsequent cluster generation are prepared, using total RNA as input. Further, adapter ligation, reverse transcription, PCR amplification, and pooled gel purification to generate a library product is applied as it is known to the skilled person in the art. […] Data represent pooled triplicates from 3 independent experiments. Representative experiment shown; the same experiment was performed with all the anti-fibrotic natural substances identified (see FIG. 16).

[5] = system: C57BL/6N mice with angiotensin II-induced diastolic heart failure; experiment: 2-dimensional speckle-tracking strain echocardiography, therapeutic model; type: in vivo; conditions: therapeutic: Bufalin 0.5 mg/kg; week 8
Description: as §1, §2, §3
Additionally, myocardial deformation was assessed using strain imaging such as 2-dimensional speckle-tracking strain echocardiography. Global longitudinal strain (GLS), a measure for the deformation of the myocardium, which decreases when diastolic dysfunction is present, is depicted in FIG. 15.

[6] = system: C57BL/6N mice with angiotensin II-induced diastolic heart failure; experiment: Echocardiography in therapeutic murine model (angiotensin II for eight weeks); type: in vivo; conditions: therapeutic: Bufalin 0.5 mg/kg i.p. every other day from week 2; week 8
Description: as §1, §2
Diastolic HF was induced in C57BL/6 mice and Bufalin or Lycorine were injected as indicated in Example 5. Eight weeks after the operation, cardiac function of the mice was assessed echocardiographically (n=5-12 per group) by treating the mice with said compounds (Bufalin: 0.5 mg/kg, Lycorine 4.5 mg/kg).
A decrease of the Myocardial Performance Index (MPI) (see FIG. 12B) as well as a reduction of the isovolumetric relaxation time (IVRT) (see FIG. 12C) and an increase in E to A peak ratio (E/A) (the ratio of the early (E) to late (A) ventricular filling velocities as a marker of the function of the left ventricle of the heart) (see FIG. 12D) indicate improvement of both global (MPI) and diastolic (IVRT and E/A) function of the heart, in particular for Bufalin.

Compound | levels in the myocardium compared to the plasma [1] | most effective amount (renal fibroblasts) [2] | proliferation of renal fibroblasts (NRK49F) [2] | collagen deposition in heart sections (picrosirius-stained areas) [3] | velocity of tissue motion in diastole (E′) [4] | number of miRNAs downregulated in HCFs (miRNA expression of HCFs) | number of miRNAs upregulated in HCFs (miRNA expression of HCFs) | ejection fraction (EF) [5] | global longitudinal strain (GLS) [5] | E to A peak ratio [6] | Myocardial Performance Index (MPI) [6] | isovolumetric relaxation time (IVRT) [6]
O[C@H]1[C@H]2c3cc4c(cc3CN3CCC(=C[C@@H]1O)[C@H]23)OCO4 [Lycorine] | higher levels in (A) the myocardium as compared to (B) the plasma | 10 µM | significantly inhibits proliferation | reduction of collagen deposition |  |  |  |  |  |  |  | 
C[C@]12CC[C@H](O)C[C@H]1CC[C@@H]1[C@@H]2CC[C@]2(C)[C@@H](c3ccc(=O)oc3)CC[C@]12O [Bufalin] | higher levels in (A) the myocardium as compared to (B) the plasma |  | significantly inhibits only proliferation of pulmonary fibroblasts | reduction of collagen deposition | recovers the velocity of tissue motion in diastole | 33 | 14 | remained comparable in all tested groups | significant reversal of the downshift | increase | decrease | reduction
